Read-outs that look alike come from different tables or passages of the source.
How the values were obtained:
[1] = test system: HIV-1; settings: for (Nx) protein binding shift α-GP 1 mg/mL: EC90 with 1 mg/mL glycoprotein versus RPMI; for (Nx) protein binding shift HSA 45 mg/mL: EC90 with 45 mg/mL HSA versus RPMI
[2] = test system: mock-infected MT-4 cells; assay: Viability of mock-infected MT-4 cells, MTT method; type: cell-based
[3] = test system: HIV-1 WTIIIB; assay: p24 reduction in virus-infected C8166 cells, WTIIIB; type: cell-based
[4] = test system: HIV-1 K103N-Y181C; assay: microbe, parasite or virus in culture; type: cell-based; settings: for K103N-Y181C (Nx) resistance shift: EC50 K103N-Y181C versus WTIIIB
[5] = test system: HIV-1 K103R; assay: microbe, parasite or virus in culture; type: cell-based; settings: for K103R (Nx) resistance shift: EC90 K103R versus WTIIIB
[6] = test system: HIV-1 Y181C; assay: microbe, parasite or virus in culture; type: cell-based; settings: for Y181C (Nx) resistance shift: EC50 Y181C versus WTIIIB
[7] = test system: HIV-1 WTIIIB; assay: Protection of MT-4 cells from HIV-1-induced cytopathogenicity, MTT method, WTIIIB; type: cell-based
Text: Example 26 illustrates the influence of substituents at positions 4, 5, 6, and 7 of the indole ring, in which position 2 of the indole ring is maintained constant, and the substitution at the 3,5-position of the phenyl ring is either hydrogen or held constant with a 3,5-dimethyl substitution. Table 3 presents the influence of these variations on the ability of the compounds to protect cells from HIV-1 induced pathogenecity.

[8] = Viability of mock-infected MT-4 cells, MTT method; type: cell-based; settings: human; mock-infected MT-4 cells, MTT
[9] = read-out: EC90 HSA 45 mg/mL, HIV-1-infected MT-4 cells, RPMI 10% FCS plus 45 mg/mL human serum albumin
[10] = read-out: EC90 RPMI, reduce p24 by 90% in HIV-1-infected MT-4 cells, RPMI 10% FCS
[11] = read-out: EC90 α-GP 1 mg/mL, HIV-1-infected MT-4 cells, RPMI 10% FCS plus 1 mg/mL glycoprotein
[12] = Human immunodeficiency virus 1, MT4, read-out: K103N-Y181C EC50
[13] = Human immunodeficiency virus 1, MT4, read-out: Y181C EC50
[14] = Human immunodeficiency virus 1, MT4, 50% protection of MT-4 cells
[15] = reduce p24 by 90% in virus-infected C8166 cells, read-out: WTIIIB EC90
[16] = 50% protection of MT-4 cells, MTT, read-out: K103N-Y181C EC50
[17] = reduce p24 by 90% in virus-infected C8166 cells, read-out: K103R EC90
[18] = 50% protection of MT-4 cells, MTT, read-out: Y181C EC50

5-Chloro-3-(3,5-dimethylphenylsulfonyl)-indole-2-carboxyamide [compound 2]
(Nx) protein binding shift α-GP 1 mg/mL [1]: 2 x
(Nx) protein binding shift HSA 45 mg/mL [1]: 40 x
EC90 [1, 9]: 200 nM
EC90 [1, 10]: 5 nM
EC90 [1, 11]: 10 nM

Cc1cc(C)cc(S(=O)(=O)c2c(CC(N)=O)[nH]c3ccc(Cl)c(F)c23)c1 [5g, 5-Chloro-3-(3,5-dimethylphenylsulfonyl)-4-fluoroindole-2-carboxyamide]
melting point: 268 to 270 °C

Cc1cc(C)cc(S(=O)(=O)c2c(CC(N)=O)[nH]c3ccc(F)c(Cl)c23)c1 [5h, 4-Chloro-3-(3,5-dimethylphenylsulfonyl)-5-fluoroindole-2-carboxyamide]
melting point: 279 to 280 °C

Cc1cc(C)cc(S(=O)(=O)c2c(CC(N)=O)[nH]c3cc(Cl)c(F)cc23)c1 [5i, 6-Chloro-3-(3,5-dimethylphenylsulfonyl)-5-fluoroindole-2-carboxyamide]
melting point: 262 to 264 °C

Cc1cc(C)cc(S(=O)(=O)c2c(CC(N)=O)[nH]c3ccc([N+](=O)[O-])cc23)c1 [5k, 5-Nitro-3-(3,5-dimethylphenylsulfonyl)indole-2-carboxyamide]
melting point: 270 to 272 °C

CC(=O)c1ccc2[nH]c(CC(N)=O)c(Sc3cc(C)cc(C)c3)c2c1 [5l, 5-Acetyl-3-(3,5-dimethylphenylthio)indole-2-carboxyamide]
melting point: > 300 °C

NC(=O)Cc1[nH]c2ccc(-n3cccc3)cc2c1S(=O)(=O)c1ccccc1 [25a, 5-(1H-Pyrrol-1-yl)-3-(phenylsulfonyl)indole-2-carboxyamide]
melting point: 250 °C

CNNC(=O)c1[nH]c2ccc(Cl)cc2c1S(=O)(=O)c1cc(C)cc(C)c1 [Compd 10]
CC50 [2]: > 200000 nM

Cc1cc(C)cc(S(=O)(=O)c2c(C(=O)NNC(C)C)[nH]c3ccc(Cl)cc23)c1 [Compd 11]
CC50 [2]: 17000 nM

Cc1cc(C)cc(S(=O)(=O)c2c(C(=O)N3CCN(C)CC3)[nH]c3ccc(Cl)cc23)c1 [Compd 13]
CC50 [2]: > 200000 nM

O=C1Nc2ccc(Cl)cc2[C@@](C#CC2CC2)(C(F)(F)F)O1 [EFV, efavirenz, reference compound]
EC90 ([3]; Human immunodeficiency virus 1, C8166, read-out: WTIIIB EC90): 8 nM
EC50 [4, 12]: 150 nM
EC90 ([5]; Human immunodeficiency virus 1, C8166, read-out: K103R EC90): 1800 nM
EC50 [6, 13]: 25 nM
EC50 [7, 14]: 4 nM
CC50 [8]: 35000 nM

Cc1ccnc2c1NC(=O)c1cccnc1N2C1CC1 [NVP, nevirapine, reference compound]
EC50 [4, 12]: > 30000 nM
EC50 [6, 13]: > 30000 nM
EC50 [7, 14]: 370 nM
CC50 [8]: 200000 nM

NC(=O)c1[nH]c2ccc(Cl)cc2c1S(=O)(=O)c1ccccc1 [compound 1]
(Nx) protein binding shift α-GP 1 mg/mL [1]: 2 x
(Nx) protein binding shift HSA 45 mg/mL [1]: 10 x
EC90 [1, 9]: 10 nM
EC90 [1, 10]: 1 nM
EC90 [1, 11]: 2 nM

Cc1cc(C)cc(S(=O)(=O)c2c(C(=O)NNCCO)[nH]c3ccc(Cl)cc23)c1 [compound 3, 5-Chloro-3-(3,5-dimethylphenylsulfonyl)indole-2-[N′-(2-hydroxy-ethyl)]-carboxyhydrazide]
(Nx) protein binding shift α-GP 1 mg/mL [1]: 7 x
(Nx) protein binding shift HSA 45 mg/mL [1]: 67 x
EC90 [1, 9]: 270 nM
EC90 [1, 10]: 4 nM
EC90 [1, 11]: 30 nM

Cc1cc(C)cc(S(=O)(=O)c2c(C(=O)NCC(N)=O)[nH]c3ccc(Cl)cc23)c1 [compound 4, 2-[N-[5-Chloro-3-(3,5-dimethylphenylsulfonyl)indol-2-carboxy-amido]]-acetamide]
EC90 [3, 15]: 10 nM
EC50 [4, 16]: 800 nM
K103N-Y181C (Nx) resistance shift [4]: 133 x
K103R (Nx) resistance shift [5]: 10 x
EC90 [5, 17]: 100 nM
(Nx) protein binding shift α-GP 1 mg/mL [1]: 3 x
(Nx) protein binding shift HSA 45 mg/mL [1]: 80 x
EC90 [1, 9]: 4800 nM
EC90 [1, 10]: 60 nM
EC90 [1, 11]: 200 nM
EC50 [6, 18]: 30 nM
Y181C (Nx) resistance shift [6]: 5 x
EC50 ([7]; 50% protection of MT-4 cells): 6 nM
CC50 [2]: 30000 nM

NC(=O)c1[nH]c2cc(Cl)c(Cl)cc2c1S(=O)(=O)c1ccccc1 [compound 8]
EC90 [3, 15]: 170 nM
EC50 [4, 16]: > 100000 nM
K103N-Y181C (Nx) resistance shift [4]: > 714 x
K103R (Nx) resistance shift [5]: 94 x
EC90 [5, 17]: 16000 nM
EC50 [6, 18]: 2600 nM
Y181C (Nx) resistance shift [6]: 18 x
EC50 ([7]; 50% protection of MT-4 cells): 140 nM
CC50 [2]: 123000 nM

Cc1cc(C)cc(S(=O)(=O)c2c(CC(N)=O)[nH]c3c(Cl)cc(Cl)cc23)c1 [compound 10, 5,7-Dichloro-3-(3,5-dimethylphenylsulfonyl)indole-2-carboxyamide]
melting point: > 300 °C

Cc1cc(C)cc(S(=O)(=O)c2c(CC(N)=O)[nH]c3ccc(F)c(F)c23)c1 [compound 11, 3-(3,5-Dimethylphenylsulfonyl)-4,5-difluoroindole-2-carboxyamide]
melting point: 298 to 300 °C

Cc1cc(C)cc(S(=O)(=O)c2c(C(N)=O)[nH]c3cc(F)c(F)cc23)c1 [compound 12, 3-(3,5-Dimethylpbenylsulfonyl)-5,6-difluoroindole-2-carboxyamide]
EC50 [4, 16]: 2600 nM
K103N-Y181C (Nx) resistance shift [4]: ≥ 866 x
EC50 [6, 18]: 70 nM
Y181C (Nx) resistance shift [6]: (≧23.3) x
EC50 ([7]; 50% protection of MT-4 cells): ≤ 3 nM

Cc1cc(C)cc(S(=O)(=O)c2c(CC(N)=O)[nH]c3c(F)cc(F)cc23)c1 [compound 13, 3-(3,5-Dimethylphenylsulfonyl)-5,7-difluoroindole-2-carboxyamide]
melting point: > 300 °C

From US20040180888A1 (priority 2001, published 2004)
